Source: the supplement of paper PMC10307832

Assays:
Experiment in all cases: relative viability (nuclei count vs DMSO), 5 days (fraction); higher = more cells survive
[1] = compound: CC1=CC(=C(N1C2=CC=C(C=C2)Cl)C)C(=O)CN3CCCCC3 [IU1-47] + CC(=O)c1c(C)c2cnc(Nc3ccc(N4CCNCC4)cn3)nc2n(C2CCCC2)c1=O [Palbociclib] (partner 0.5 µM)
Outline: (§1)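 For relative viability, nuclei counts in treated wells were divided by those in vehicle wells. Lung cancer cell lines had been pin-tool dosed in 1536-well plates the day after seeding and cultured for 5 days, then fixed and stained in one step (final 0.05% Triton X-100, 1% formaldehyde, 1 ug/ml Hoechst) and imaged at 4×. Doses were one drug alone or a fixed anchor-drug dose plus five library-drug doses (not always all listed) in √10 steps, and values are duplicate-plate medians.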

[2] = compound: Cc1nc(C(=O)NCC(=O)O)c(O)c2ccc(Oc3ccccc3)cc12 [FG-4592] + CC(=O)c1c(C)c2cnc(Nc3ccc(N4CCNCC4)cn3)nc2n(C2CCCC2)c1=O [Palbociclib] (partner 0.5 µM)
Outline: as §1

[3] = compound: Cc1nc(C(=O)NCC(=O)O)c(O)c2ccc(Oc3ccccc3)cc12 [FG-4592] + CS(=O)(=O)N1CCN(Cc2cc3nc(-c4cccc5[nH]ncc45)nc(N4CCOCC4)c3s2)CC1 [Pictilisib] (partner 1 µM)
Outline: as §1

[4] = compound: Cc1nc(C(=O)NCC(=O)O)c(O)c2ccc(Oc3ccccc3)cc12 [FG-4592] + O=C(c1cc(Cc2n[nH]c(=O)c3ccccc23)ccc1F)N1CCN(C(=O)C2CC2)CC1 [Olaparib] (partner 8 µM)
Outline: as §1

Row | Cell Line | relative viability ([1]; first compound 0.08 µM) | relative viability ([1]; first compound 0.253 µM) | relative viability ([1]; first compound 0.8 µM) | relative viability ([1]; first compound 2.53 µM) | relative viability ([1]; first compound 8 µM) | relative viability ([2]; first compound 0.08 µM) | relative viability ([2]; first compound 0.253 µM) | relative viability ([2]; first compound 0.8 µM) | relative viability ([2]; first compound 2.53 µM) | relative viability ([2]; first compound 8 µM) | relative viability ([3]; first compound 0.08 µM) | relative viability ([3]; first compound 0.253 µM) | relative viability ([3]; first compound 0.8 µM) | relative viability ([3]; first compound 2.53 µM) | relative viability ([3]; first compound 8 µM) | relative viability ([4]; first compound 0.08 µM) | relative viability ([4]; first compound 0.253 µM) | relative viability ([4]; first compound 0.8 µM) | relative viability ([4]; first compound 2.53 µM) | relative viability ([4]; first compound 8 µM)
1 | LCLC-103H | 0.551 | 0.531 | 0.506 | 0.478 | 0.469 | 0.474 | 0.408 | 0.414 | 0.467 | 0.454 | 0.5 | 0.512 | 0.509 | 0.714 | 0.654 | 0.746 | 0.751 | 0.695 | 0.708 | 0.751
2 | LK-2 | 1.04 | 1.03 | 0.568 | 0.68 | 0.559 | 0.521 | 0.656 | – | 0.679 | 0.599 | – | 0.638 | – | 0.64 | 0.475 | 0.556 | 0.787 | 0.613 | 0.701 | 0.662
3 | LOU-NH91 | 0.524 | 0.533 | 0.539 | 0.431 | 0.507 | 0.534 | 0.514 | 0.54 | 0.517 | 0.544 | 0.456 | 0.51 | 0.509 | 0.545 | 0.554 | 0.93 | 0.85 | 0.902 | 0.959 | 0.953
4 | LU99A | 0.373 | 0.43 | 0.399 | 0.496 | 0.372 | 0.38 | 0.417 | – | 0.432 | 0.382 | 0.311 | 0.28 | 0.291 | 0.316 | 0.339 | 0.268 | 0.242 | – | 0.276 | 0.29
5 | LXF-289 | 0.634 | 0.679 | 0.603 | 0.58 | 0.619 | 0.551 | 0.563 | 0.615 | 0.588 | 0.603 | 0.776 | 0.696 | 0.822 | 0.708 | 0.769 | 1.09 | 0.961 | 1.07 | 1.01 | 1.1
6 | NCI-H23 | 0.532 | – | 0.431 | 0.511 | 0.499 | 0.628 | 0.45 | 0.501 | 0.547 | 0.453 | 0.365 | 0.433 | 0.486 | 0.449 | 0.398 | 0.34 | 0.333 | 0.365 | 0.321 | 0.296
7 | NCI-H322M | 0.489 | 0.551 | 0.487 | 0.537 | 0.494 | – | 0.455 | 0.444 | 0.465 | 0.483 | 0.379 | 0.481 | 0.481 | 0.512 | 0.583 | – | 0.746 | 0.713 | 0.766 | 0.897
8 | NCI-H358 | 0.131 | 0.165 | 0.149 | 0.112 | 0.141 | 0.114 | 0.141 | 0.128 | 0.128 | 0.136 | 0.323 | 0.344 | 0.289 | 0.292 | 0.326 | 0.55 | 0.552 | 0.662 | 0.579 | 0.695
9 | NCI-H441 | 0.265 | 0.243 | 0.206 | 0.204 | 0.188 | 0.226 | 0.214 | 0.208 | 0.226 | 0.186 | 0.585 | 0.524 | 0.509 | 0.483 | 0.464 | 0.431 | 0.462 | 0.49 | 0.502 | 0.493
10 | NCI-H460 | 0.24 | 0.123 | 0.16 | 0.153 | 0.105 | 0.204 | 0.168 | 0.173 | 0.155 | 0.119 | 0.236 | 0.367 | 0.314 | 0.466 | 0.381 | 0.445 | 0.449 | 0.462 | 0.51 | 0.43
11 | NCI-H520 | 0.218 | 0.227 | 0.223 | 0.204 | 0.237 | 0.15 | 0.174 | 0.192 | 0.215 | 0.162 | 0.269 | 0.293 | 0.225 | 0.291 | 0.258 | 0.361 | 0.342 | 0.303 | 0.391 | 0.385
12 | NCI-H647 | 0.38 | 0.416 | 0.416 | 0.419 | 0.42 | 0.422 | 0.416 | 0.366 | 0.374 | 0.175 | – | 0.395 | – | 0.452 | 0.53 | 0.597 | 0.533 | 0.489 | 0.635 | 0.416
13 | NCI-H650 | 0.361 | 0.332 | 0.312 | 0.373 | 0.288 | 0.338 | 0.264 | 0.327 | 0.321 | 0.263 | 0.879 | 0.916 | 0.739 | 0.801 | 0.872 | 0.343 | 0.32 | 0.44 | 0.364 | 0.354
14 | NCI-H661 | 0.433 | 0.425 | 0.44 | 0.415 | 0.443 | 0.397 | 0.408 | 0.373 | 0.397 | 0.396 | 0.29 | – | 0.431 | 0.473 | 0.371 | 0.708 | 0.727 | 0.822 | 0.757 | 0.816
15 | NCI-H727 | 0.642 | 0.648 | 0.606 | 0.686 | 0.669 | 0.674 | 0.589 | 0.575 | 0.659 | 0.626 | 0.311 | 0.274 | 0.307 | 0.335 | 0.452 | 0.698 | 0.782 | 0.752 | 0.681 | 0.672
16 | NCI-H838 | 0.181 | 0.222 | 0.225 | 0.232 | 0.236 | 0.192 | 0.218 | 0.198 | 0.218 | 0.174 | 0.481 | 0.396 | 0.363 | 0.494 | 0.433 | 0.796 | 0.71 | 0.796 | 0.756 | 0.806
17 | NCI-H1355 | 0.422 | 0.414 | 0.41 | – | 0.37 | 0.394 | 0.38 | – | 0.382 | 0.356 | 0.389 | 0.393 | – | 0.379 | 0.366 | 0.803 | 0.66 | – | 0.759 | 0.719
18 | NCI-H1395 | 0.58 | 0.569 | 0.631 | 0.655 | 0.567 | 0.585 | 0.615 | 0.597 | 0.688 | 0.485 | 0.747 | 0.622 | – | 0.776 | 0.531 | 0.526 | 0.488 | 0.471 | 0.48 | 0.385
19 | NCI-H1437 | 0.284 | 0.281 | 0.344 | 0.282 | 0.294 | 0.313 | 0.314 | 0.299 | 0.312 | 0.243 | 0.447 | 0.437 | 0.337 | 0.37 | 0.269 | 0.581 | 0.602 | 0.679 | 0.651 | 0.6
20 | NCI-H1650 | 0.322 | 0.313 | 0.27 | 0.317 | 0.287 | 0.259 | 0.292 | 0.304 | 0.346 | 0.332 | 0.428 | 0.549 | 0.44 | 0.586 | 0.617 | 0.786 | 0.721 | 0.843 | 0.781 | 0.869
21 | NCI-H1651 | 0.525 | 0.539 | 0.495 | 0.523 | 0.523 | 0.522 | 0.488 | 0.488 | 0.518 | 0.458 | 0.541 | 0.575 | 0.534 | 0.635 | 0.454 | 0.182 | 0.175 | 0.196 | 0.17 | 0.176
22 | NCI-H1666 | 0.695 | 0.652 | 0.695 | 0.682 | 0.63 | 0.698 | 0.554 | 0.658 | 0.673 | 0.689 | 0.41 | 0.341 | 0.42 | 0.486 | 0.321 | 0.764 | 0.744 | 0.809 | 0.796 | 0.779
23 | NCI-H1734 | 0.353 | 0.355 | 0.314 | 0.367 | 0.322 | 0.348 | 0.362 | 0.35 | 0.345 | 0.286 | 0.417 | 0.47 | 0.405 | 0.482 | 0.491 | 0.597 | 0.61 | 0.664 | 0.68 | 0.605
24 | NCI-H1755 | 0.44 | 0.518 | 0.461 | 0.46 | 0.436 | 0.476 | 0.446 | 0.409 | 0.471 | 0.463 | 0.303 | 0.4 | 0.306 | 0.442 | 0.444 | 0.873 | 0.837 | 0.762 | 0.907 | 0.799
25 | NCI-H1792 | 0.727 | 0.643 | 0.707 | 0.44 | 0.544 | 0.493 | 0.614 | 0.689 | 0.661 | 0.684 | 0.296 | 0.248 | 0.279 | 0.246 | 0.318 | 0.487 | 0.432 | – | 0.457 | 0.497
26 | NCI-H1793 | 0.306 | – | 0.317 | 0.359 | 0.276 | – | 0.256 | – | 0.39 | 0.293 | 0.281 | 0.384 | – | 0.228 | 0.354 | – | 0.727 | – | 0.827 | 0.71
27 | NCI-H1915 | 0.561 | 0.513 | 0.539 | 0.565 | 0.528 | 0.475 | 0.513 | 0.496 | 0.504 | 0.513 | 0.913 | 0.915 | 0.873 | 0.93 | 0.95 | 0.25 | 0.248 | 0.276 | 0.253 | 0.282
